Measurements published in ChEMBL document CHEMBL1201862, “PubChem BioAssay data set” (2004).
The source made the active and inactive calls.

Columns and labels:
[1] = THP-1 cell cytotoxicity, dose response, cytotoxicity control for non-replicating M. tuberculosis project (AID 489025); format: functional
[2] = molecular target: Female germline-specific tumor suppressor gld-1 (Caenorhabditis elegans, UniProt Q17339); assay: inhibitors of GLD-1 binding to TGE RNA, dose response, biochemical, fluorescence polarization, C. elegans (AID 2802);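 further: fluorescence polarization of labeled TGE RNA bound by purified gld-1 protein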
Female germline-specific tumor suppressor gld-1, sequence (Q17339 whole entry): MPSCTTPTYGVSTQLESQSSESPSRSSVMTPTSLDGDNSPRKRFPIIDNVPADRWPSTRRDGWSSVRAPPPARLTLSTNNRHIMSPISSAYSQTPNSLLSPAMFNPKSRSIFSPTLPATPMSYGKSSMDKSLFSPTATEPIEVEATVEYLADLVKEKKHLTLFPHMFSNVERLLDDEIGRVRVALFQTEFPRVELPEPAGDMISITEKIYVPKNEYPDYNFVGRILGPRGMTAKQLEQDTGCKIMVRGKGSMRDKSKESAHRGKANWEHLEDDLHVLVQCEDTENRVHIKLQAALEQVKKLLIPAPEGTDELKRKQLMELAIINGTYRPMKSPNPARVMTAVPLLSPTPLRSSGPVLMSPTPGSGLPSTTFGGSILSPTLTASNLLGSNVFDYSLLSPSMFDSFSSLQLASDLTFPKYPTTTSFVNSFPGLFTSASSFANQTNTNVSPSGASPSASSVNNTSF

Bcl-2-related protein A1 = molecular target: T1, Bcl-2-related protein A1 (Mus musculus, UniProt Q07440); assay: Bfl-1 inhibitors, primary screen, biochemical, fluorescence polarization, FITC-Bid, mouse (AID 432)
T1 sequence (Q07440 whole entry): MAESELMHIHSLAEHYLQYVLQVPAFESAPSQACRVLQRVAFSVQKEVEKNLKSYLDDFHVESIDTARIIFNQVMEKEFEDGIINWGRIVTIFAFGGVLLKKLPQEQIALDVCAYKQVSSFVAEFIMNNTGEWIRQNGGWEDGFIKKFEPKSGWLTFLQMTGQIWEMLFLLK

Streptococcus = assay: Group A Streptococcus viability loss, dose response, counter-screen for streptokinase expression inhibitor project, luminescence, BacTiterGlo (AID 1915); format: functional, organism-based;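 further: potency for reduction of bacterial viability or growth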
[3] = HepG2 cell cytotoxicity, dose response, cytotoxicity control for Shn3 inhibitor project, CellTiter-Glo, cherry-picked (AID 624134); format: functional, cell-based
[4] = inhibitors of clade B AD8 Env fusion, dose response, cell-based, cherry-pick (AID 652062); format: functional;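 further: luciferase signal from cell-cell fusion driven by HIV-1 clade B AD8 Env; potency is for inhibitors of fusion seen as a drop in luminescence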
[5] = molecular target: T2, Tyrosyl-DNA phosphodiesterase 2 (Homo sapiens, UniProt O95551); assay: human TDP2 enzyme inhibitors, dose response, biochemical, epi absorbance, IC50 (AID 743297)
T2 sequence (O95551 whole entry): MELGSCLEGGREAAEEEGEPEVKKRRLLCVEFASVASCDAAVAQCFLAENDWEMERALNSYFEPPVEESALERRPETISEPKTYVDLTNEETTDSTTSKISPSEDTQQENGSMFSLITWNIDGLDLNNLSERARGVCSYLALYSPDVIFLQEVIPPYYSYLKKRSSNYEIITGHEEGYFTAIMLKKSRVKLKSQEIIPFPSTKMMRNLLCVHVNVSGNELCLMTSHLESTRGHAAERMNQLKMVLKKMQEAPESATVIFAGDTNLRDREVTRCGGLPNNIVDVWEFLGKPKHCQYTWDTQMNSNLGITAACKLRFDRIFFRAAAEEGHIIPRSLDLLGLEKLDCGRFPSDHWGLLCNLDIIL

[6] = molecular target: T3, 1-phosphatidylinositol 4,5-bisphosphate phosphodiesterase gamma-1 (Homo sapiens, UniProt P19174); assay: Counterscreen for inhibitors of phospholipase C isozymes (PLC-B3): Fluorescence-based biochemical high throughput dose response assay to identify inhibitors of phospholipase C isozymes (PLC-gamma1).
T3 sequence (P19174 whole entry): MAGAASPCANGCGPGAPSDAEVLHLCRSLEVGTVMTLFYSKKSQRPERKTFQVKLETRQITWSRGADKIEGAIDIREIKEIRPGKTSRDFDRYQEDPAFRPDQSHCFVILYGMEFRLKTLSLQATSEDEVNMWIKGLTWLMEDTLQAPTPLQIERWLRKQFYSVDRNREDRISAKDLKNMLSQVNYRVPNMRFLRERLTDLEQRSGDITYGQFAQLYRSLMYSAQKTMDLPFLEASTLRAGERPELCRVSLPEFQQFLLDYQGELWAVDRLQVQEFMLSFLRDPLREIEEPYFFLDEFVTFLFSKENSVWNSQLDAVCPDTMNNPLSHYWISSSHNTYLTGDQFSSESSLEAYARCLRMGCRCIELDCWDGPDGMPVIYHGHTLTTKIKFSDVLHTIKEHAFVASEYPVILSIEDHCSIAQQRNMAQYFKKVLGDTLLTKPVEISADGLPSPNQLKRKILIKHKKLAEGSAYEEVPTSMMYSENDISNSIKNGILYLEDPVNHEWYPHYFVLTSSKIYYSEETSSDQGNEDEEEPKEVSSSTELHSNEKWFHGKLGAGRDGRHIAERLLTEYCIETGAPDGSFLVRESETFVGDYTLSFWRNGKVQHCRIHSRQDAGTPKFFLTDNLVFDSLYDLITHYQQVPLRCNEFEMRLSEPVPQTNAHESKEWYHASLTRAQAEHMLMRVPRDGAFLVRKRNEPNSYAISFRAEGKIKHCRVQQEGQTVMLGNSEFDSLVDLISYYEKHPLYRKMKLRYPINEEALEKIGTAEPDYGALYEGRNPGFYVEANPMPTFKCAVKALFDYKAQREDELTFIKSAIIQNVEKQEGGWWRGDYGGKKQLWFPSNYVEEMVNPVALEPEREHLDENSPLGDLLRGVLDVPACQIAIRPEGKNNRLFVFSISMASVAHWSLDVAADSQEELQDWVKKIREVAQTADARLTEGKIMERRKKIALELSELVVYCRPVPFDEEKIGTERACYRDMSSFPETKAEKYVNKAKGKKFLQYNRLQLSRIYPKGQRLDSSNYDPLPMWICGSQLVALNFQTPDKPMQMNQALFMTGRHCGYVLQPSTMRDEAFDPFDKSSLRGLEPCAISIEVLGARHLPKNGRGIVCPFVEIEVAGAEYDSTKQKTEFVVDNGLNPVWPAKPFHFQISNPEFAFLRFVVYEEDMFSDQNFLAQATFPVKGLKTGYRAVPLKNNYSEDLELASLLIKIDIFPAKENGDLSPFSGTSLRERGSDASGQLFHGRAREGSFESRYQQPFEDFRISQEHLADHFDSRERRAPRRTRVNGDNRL

[7] = non-specific cell cytotoxicity, dose response, cytotoxicity control for PAX8 inhibitor project, plate reader, dry powder samples (AID 743021); format: functional, cell-based
[8] = molecular target: Tyrosine-protein kinase Lck (Homo sapiens, UniProt P06239); format: functional;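 further: lck was assayed as one member of a kinase panel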
Tyrosine-protein kinase Lck, sequence (P06239 whole entry): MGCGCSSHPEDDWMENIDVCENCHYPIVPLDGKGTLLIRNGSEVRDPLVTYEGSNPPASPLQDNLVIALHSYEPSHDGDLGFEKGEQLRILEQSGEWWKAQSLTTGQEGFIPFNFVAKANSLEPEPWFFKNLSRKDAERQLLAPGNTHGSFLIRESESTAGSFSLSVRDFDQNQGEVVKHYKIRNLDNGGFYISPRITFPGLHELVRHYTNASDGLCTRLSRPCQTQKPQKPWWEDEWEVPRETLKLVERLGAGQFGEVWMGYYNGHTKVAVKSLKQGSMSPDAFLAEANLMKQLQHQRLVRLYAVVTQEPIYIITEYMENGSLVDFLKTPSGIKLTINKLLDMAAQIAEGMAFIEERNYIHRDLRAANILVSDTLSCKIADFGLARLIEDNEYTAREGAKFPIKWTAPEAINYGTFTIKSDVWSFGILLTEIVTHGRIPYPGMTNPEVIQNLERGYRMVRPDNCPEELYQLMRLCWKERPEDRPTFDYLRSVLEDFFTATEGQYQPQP

[9] = molecular target: Serine/threonine-protein kinase N2 (Homo sapiens, UniProt Q16513); format: functional
Serine/threonine-protein kinase N2, sequence (Q16513 whole entry): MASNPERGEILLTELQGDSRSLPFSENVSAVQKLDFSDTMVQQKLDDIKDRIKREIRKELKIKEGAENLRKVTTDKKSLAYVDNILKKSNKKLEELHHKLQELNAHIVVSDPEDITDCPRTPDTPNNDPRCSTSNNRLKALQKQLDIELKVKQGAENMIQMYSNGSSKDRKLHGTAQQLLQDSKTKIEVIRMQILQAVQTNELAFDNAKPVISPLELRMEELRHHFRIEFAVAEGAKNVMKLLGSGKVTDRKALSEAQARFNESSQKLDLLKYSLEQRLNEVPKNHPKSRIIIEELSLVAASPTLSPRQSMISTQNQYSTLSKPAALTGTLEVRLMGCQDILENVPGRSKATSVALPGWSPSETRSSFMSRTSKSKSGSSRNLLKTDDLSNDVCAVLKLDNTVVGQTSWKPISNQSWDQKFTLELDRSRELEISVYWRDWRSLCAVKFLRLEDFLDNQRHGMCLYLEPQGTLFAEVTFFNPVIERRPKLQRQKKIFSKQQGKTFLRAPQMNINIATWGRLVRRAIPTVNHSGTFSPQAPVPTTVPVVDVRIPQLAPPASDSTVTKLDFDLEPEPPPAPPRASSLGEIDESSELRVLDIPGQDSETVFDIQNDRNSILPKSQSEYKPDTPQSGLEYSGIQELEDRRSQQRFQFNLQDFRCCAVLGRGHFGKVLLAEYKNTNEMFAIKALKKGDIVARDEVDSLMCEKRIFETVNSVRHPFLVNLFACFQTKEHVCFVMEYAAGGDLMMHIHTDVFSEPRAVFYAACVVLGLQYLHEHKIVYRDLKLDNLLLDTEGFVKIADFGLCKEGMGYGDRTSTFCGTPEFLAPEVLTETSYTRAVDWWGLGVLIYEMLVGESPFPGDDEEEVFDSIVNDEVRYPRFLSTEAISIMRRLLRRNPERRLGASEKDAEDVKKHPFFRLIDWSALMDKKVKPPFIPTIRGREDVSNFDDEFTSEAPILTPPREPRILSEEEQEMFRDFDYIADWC

[10] = molecular target: High affinity nerve growth factor receptor (Homo sapiens, UniProt P04629); format: functional;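 further: NTRK1 tested as one member of a kinome-wide profiling panel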
High affinity nerve growth factor receptor, sequence (P04629 whole entry): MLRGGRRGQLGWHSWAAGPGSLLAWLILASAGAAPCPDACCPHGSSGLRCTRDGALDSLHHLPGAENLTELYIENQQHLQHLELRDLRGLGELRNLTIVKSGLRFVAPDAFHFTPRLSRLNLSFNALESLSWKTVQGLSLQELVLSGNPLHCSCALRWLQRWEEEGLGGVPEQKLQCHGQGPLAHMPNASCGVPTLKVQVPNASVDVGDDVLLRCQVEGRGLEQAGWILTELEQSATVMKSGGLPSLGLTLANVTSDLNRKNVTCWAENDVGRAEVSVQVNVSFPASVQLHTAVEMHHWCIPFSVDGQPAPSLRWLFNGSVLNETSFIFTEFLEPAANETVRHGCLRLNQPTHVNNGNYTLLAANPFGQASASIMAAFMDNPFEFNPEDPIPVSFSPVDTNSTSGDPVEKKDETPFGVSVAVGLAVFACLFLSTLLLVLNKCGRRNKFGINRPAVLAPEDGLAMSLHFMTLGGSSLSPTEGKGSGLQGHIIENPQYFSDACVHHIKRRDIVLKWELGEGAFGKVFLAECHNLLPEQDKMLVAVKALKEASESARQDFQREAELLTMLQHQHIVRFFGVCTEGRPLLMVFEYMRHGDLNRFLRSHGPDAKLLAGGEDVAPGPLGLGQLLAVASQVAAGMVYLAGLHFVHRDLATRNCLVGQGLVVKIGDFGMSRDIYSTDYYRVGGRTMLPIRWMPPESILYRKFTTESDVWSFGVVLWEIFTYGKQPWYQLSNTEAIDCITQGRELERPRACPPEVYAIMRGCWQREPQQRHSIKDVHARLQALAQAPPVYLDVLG

[11] = molecular target: Cyclin-dependent kinase 1 (Homo sapiens, UniProt P06493); format: functional;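 further: Kinome-wide panel profiling, with the target listed as panel member CDC2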
Cyclin-dependent kinase 1, sequence (P06493 whole entry): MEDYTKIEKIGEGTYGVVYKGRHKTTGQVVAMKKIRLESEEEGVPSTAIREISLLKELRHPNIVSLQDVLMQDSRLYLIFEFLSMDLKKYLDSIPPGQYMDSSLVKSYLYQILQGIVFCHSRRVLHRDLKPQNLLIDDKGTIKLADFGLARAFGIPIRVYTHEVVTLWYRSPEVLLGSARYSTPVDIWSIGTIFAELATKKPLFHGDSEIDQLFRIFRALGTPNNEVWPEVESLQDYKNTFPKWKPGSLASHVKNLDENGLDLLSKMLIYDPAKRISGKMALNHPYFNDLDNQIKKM

[12] = molecular target: Platelet-derived growth factor receptor beta (Homo sapiens, UniProt P09619); format: functional;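 further: value comes from a kinome panel, with PDGFRB tested as one panel member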
Platelet-derived growth factor receptor beta, sequence (P09619 whole entry): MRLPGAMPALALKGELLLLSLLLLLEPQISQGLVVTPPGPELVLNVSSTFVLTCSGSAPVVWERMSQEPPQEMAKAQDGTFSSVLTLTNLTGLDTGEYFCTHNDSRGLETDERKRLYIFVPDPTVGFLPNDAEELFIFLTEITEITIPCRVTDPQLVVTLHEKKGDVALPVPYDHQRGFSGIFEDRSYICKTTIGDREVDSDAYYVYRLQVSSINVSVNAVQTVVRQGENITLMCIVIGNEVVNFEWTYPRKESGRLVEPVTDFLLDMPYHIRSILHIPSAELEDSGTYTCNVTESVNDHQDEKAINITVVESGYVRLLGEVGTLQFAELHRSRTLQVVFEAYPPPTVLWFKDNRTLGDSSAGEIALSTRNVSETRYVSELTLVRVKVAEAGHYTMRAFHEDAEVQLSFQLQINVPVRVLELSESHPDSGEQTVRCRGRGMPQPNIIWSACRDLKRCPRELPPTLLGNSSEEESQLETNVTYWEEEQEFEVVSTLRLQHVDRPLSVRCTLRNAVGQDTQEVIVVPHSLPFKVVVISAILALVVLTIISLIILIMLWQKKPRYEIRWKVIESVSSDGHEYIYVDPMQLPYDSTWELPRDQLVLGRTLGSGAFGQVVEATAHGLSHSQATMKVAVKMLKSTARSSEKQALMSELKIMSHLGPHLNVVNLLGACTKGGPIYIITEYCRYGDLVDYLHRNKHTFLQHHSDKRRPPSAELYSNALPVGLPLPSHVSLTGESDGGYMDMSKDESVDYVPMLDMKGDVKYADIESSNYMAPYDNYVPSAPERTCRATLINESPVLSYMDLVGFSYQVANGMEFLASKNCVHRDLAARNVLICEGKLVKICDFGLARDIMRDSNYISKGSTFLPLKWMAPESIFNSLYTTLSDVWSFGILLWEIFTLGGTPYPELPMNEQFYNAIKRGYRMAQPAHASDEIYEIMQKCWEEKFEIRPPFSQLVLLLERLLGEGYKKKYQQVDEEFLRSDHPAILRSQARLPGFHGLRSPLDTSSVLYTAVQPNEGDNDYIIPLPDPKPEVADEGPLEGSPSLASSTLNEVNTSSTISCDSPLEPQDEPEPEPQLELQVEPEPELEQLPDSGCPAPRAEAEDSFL

[13] = molecular target: Dual specificity mitogen-activated protein kinase kinase 2 (Homo sapiens, UniProt P36507); assay: Navigating the Kinome. Panel member name: MAP2K2; format: functional
Dual specificity mitogen-activated protein kinase kinase 2, sequence (P36507 whole entry): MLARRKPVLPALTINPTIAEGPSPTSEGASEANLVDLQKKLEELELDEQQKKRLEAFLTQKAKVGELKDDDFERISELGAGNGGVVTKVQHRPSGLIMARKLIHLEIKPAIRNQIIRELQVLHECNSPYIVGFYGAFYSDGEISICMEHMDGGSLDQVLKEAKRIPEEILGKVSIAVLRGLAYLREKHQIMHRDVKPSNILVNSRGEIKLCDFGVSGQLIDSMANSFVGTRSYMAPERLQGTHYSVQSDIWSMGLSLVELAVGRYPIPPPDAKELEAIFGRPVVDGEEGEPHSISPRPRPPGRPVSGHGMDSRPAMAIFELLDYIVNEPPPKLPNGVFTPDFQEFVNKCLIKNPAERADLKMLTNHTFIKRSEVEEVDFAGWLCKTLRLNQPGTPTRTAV

SMILES: COC(=O)CCS(=O)(=O)c1nc(-c2ccccc2)cc(C(F)(F)F)n1
- CC50 [1]: 25.2 µM (active)

SMILES: O=C(O)c1ccc2c3c(ncnc13)-c1ccccc1C2=O
- IC50 [2]: 3.51 µM (active)
- IC50 (Bcl-2-related protein A1): > 100 µM (not active)
- EC50 (Streptococcus): > 150 µM (not active)

SMILES: CCOC(=O)c1c2c(n(Cc3ccccc3)c1C)C(=O)C(=O)c1ccccc1-2
- AC50 [3]: 6.74 µM (active)
- AC50 [4]: 10.6 µM (active)
- IC50 [5]: 4.78 µM (active)
- IC50 [6]: 28.3 µM (inactive)
- AC50 [7]: 15.7 µM (active)

SMILES: Cc1ccc2nccc(NC(=O)Nc3cccc(C(F)(F)F)n3)c2c1
- Ki [8]: > 2.51 µM (inactive)
- Ki [9]: > 7.94 µM (inactive)
- Ki [10]: > 2.51 µM (inactive)
- Ki [11]: 0.501 µM (active)

SMILES: COc1cc2c(cc1F)C(c1ccccc1Cl)=Nc1c(n[nH]c1C)N2 [RG-1530]
- Ki [12]: 0.0501 µM (active)
- Ki [13]: 2.51 µM (active)
